Results: patent publication US20110263507A1 (priority 2007, published 2011)
Like-named read-outs stand apart in the source and are kept apart here. Where a SMILES comes first, the peptide text is derived from it. Where no end group is shown, it is not given here. [ ]: non-standard residue; d: D form. Ala(indol-4-yl) = N[C@@H](Cc1cccc2[nH]ccc12)C(=O)O; NMeR = CN[C@@H](CCCNC(=N)N)C(=O)O; Tle = CC(C)(C)[C@H](N)C(=O)O; dOrn = NCCC[C@@H](N)C(=O)O; Dab = NCC[C@H](N)C(=O)O

What was measured:
[1] = Degradation of peptides in plasma in vitro (stability to plasma peptidases); assay type: in vitro ADME; details: peptide incubated with human (FIG. 4) or rat plasma; for half-life: read-out: half-lives in plasma
Protocol: All peptides that were stable (half-lives >100 h), such as NT66, NT67, NT69, NT72, and NT73, have either a blocked amino group (N-Methyl-Arg) or a D-amino in the 8 or 9 position (Table 4).

hNTS1 = target: T1, hNTS1 (Homo sapiens, UniProt P30989); assay: Radioligand competition binding with [3H]NT, membranes of CHO-K1 cells expressing hNTS1; details: for hNTS1 Selectivity: hNTS1 over hNTS2
T1 construct: expressed in transfected cells; host or cells: CHO-K1
Protocol: CHO-K1 cells that had been stably transfected separately with the hNTS1 or hNTS2 genes were cultured in 150 mm (500 cm^2) Petri plates with 35 ml of Dulbecco's modified Eagle's medium containing 100 μM minimal essential medium nonessential amino acids (Life Technologies, Inc.) supplemented with 5% (v/v) FetalClone II bovine serum product (Hyclone Labs, Logan, Utah). […] The cellular pellet (in Tris-HCl buffer) was stored at […] until the radioligand binding was performed.
For use in binding assays, crude membrane preparations were prepared by centrifugation of the cellular pellet at 35,600×g for 10 min. The supernatant was decanted and discarded, and the cellular pellet was resuspended in 1 ml of Tris-HCl buffer followed by homogenization with a Brinkmann Polytron at setting 5.5 for 15 s. Centrifugation was repeated as above, the supernatant was decanted and discarded, and the cellular pellet was resuspended in 1 ml of Tris-HCl buffer followed by homogenization. Centrifugation was repeated a third time, the supernatant was discarded, and the final cellular pellet was suspended in 0.5-2.5 ml of Tris-HCl buffer. Protein concentration of the membrane preparation was estimated by the method of Lowry et al. using bovine serum albumin as a standard.
Incubation was at 20° C. for 40 min. The assay was routinely terminated by addition of ice-cold 0.9% NaCl (5×1.5 ml), followed by rapid filtration through a GF/B filter strip that had been pretreated with 0.2% or 2% polyethyleneimine. Details of binding assays have been described previously. […] Data were analyzed using the LIGAND program.

hNTS2 = target: T2, hNTS2 (Homo sapiens, UniProt O95665); assay: Radioligand competition binding with [3H]NT, membranes of CHO-K1 cells expressing hNTS2
T2 construct: expressed in transfected cells; host or cells: CHO-K1
Protocol: CHO-K1 cells that had been stably transfected separately with the hNTS1 or hNTS2 genes were cultured in 150 mm (500 cm^2) Petri plates with 35 ml of Dulbecco's modified Eagle's medium containing 100 μM minimal essential medium nonessential amino acids (Life Technologies, Inc.) supplemented with 5% (v/v) FetalClone II bovine serum product (Hyclone Labs, Logan, Utah). CHO cells (subculture 7-15) were harvested at confluence by aspiration of the medium, followed by a wash with ice-cold 50 mM Tris-HCl buffer, pH=7.4, which was discarded, resuspension in 5-15 ml of Tris-HCl, scraping the cells with a plastic spatula into a centrifuge tube, and collection of cells by centrifugation at 300×g for 5 min at 4° C., in a GPR centrifuge (Beckman Instruments, Fullerton, Calif.). The cellular pellet (in Tris-HCl buffer) was stored at −180° C. until the radioligand binding was performed.
Incubation was at 20° C. for 40 min. The assay was routinely terminated by addition of ice-cold 0.9% NaCl (5×1.5 ml), followed by rapid filtration through a GF/B filter strip that had been pretreated with 0.2% or 2% polyethyleneimine. […] Data were analyzed using the LIGAND program.
Curves were generated using the LIGAND program. […] Data are the means of duplicate determinations and are representative results from one of at least three independent experiments.

[2] = read-out: hNTS1 Geometric Mean ∀ SEM (equilibrium dissociation constant Kd)
[3] = Table 2, read-out: hNTS2 Geometric Mean ∀ SEM (equilibrium dissociation constant Kd)

T2 sequence (O95665 whole entry): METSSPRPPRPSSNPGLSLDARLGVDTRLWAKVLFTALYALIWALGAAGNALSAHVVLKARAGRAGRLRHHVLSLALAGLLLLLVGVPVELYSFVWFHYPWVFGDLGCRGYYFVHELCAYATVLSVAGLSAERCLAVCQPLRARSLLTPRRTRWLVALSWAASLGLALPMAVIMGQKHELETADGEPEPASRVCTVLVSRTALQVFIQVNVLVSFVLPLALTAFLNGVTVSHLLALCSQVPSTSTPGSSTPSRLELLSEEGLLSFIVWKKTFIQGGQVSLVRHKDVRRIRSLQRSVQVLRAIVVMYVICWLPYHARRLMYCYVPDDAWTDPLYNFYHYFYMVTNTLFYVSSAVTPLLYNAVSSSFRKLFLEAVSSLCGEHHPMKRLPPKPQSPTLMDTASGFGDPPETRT
T1 sequence (P30989 whole entry): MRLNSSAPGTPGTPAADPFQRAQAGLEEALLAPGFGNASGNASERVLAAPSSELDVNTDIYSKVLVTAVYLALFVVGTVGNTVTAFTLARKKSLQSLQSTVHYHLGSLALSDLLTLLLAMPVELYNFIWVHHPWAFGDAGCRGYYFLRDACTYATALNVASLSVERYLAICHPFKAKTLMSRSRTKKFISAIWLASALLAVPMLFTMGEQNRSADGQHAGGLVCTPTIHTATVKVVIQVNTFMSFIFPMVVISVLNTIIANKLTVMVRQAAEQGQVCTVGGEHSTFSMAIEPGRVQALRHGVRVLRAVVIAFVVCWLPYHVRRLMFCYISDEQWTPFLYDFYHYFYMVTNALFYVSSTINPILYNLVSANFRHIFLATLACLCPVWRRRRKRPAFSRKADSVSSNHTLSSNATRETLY

CC[C@H](C)[C@H](NC(=O)[C@H](Cc1cccc2[nH]ccc12)NC(=O)[C@@H]1CCCN1C(=O)[C@H](CCCNC(=N)N)NC(=O)[C@@H](N)CCCNC(=N)N)C(=O)N[C@@H](CC(C)C)C(=O)O [NT64L, [L-neo-Trp^11]NT(8-13)]
degradation in plasma [1]: rapidly degraded

CC(C)C[C@H](NC(=O)[C@@H](NC(=O)[C@H](Cc1cccc2[nH]ccc12)NC(=O)[C@@H]1CCCN1C(=O)[C@H](CCCNC(=N)N)NC(=O)[C@@H](N)CCCNC(=N)N)C(C)(C)C)C(=O)O [NT65, [neo-Trp^11,tert-Leu^12]NT(8-13)] (H-RRP[Ala(indol-4-yl)][Tle]L-OH; N-terminus and C-terminus assumed)
hNTS1 Selectivity (hNTS1; Table 2): 0.5
Kd (hNTS1; [2]): 1.01 ± 0.05 nM
hNTS2 Selectivity (hNTS2; Table 2, hNTS2 over hNTS1): 1.9
Kd (hNTS2; [3]): 0.52 ± 0.03 nM
hNTS2 Selectivity (hNTS2; Table 4): 1.7
degradation in plasma [1]: rapidly degraded

CC(C)C[C@H](NC(=O)[C@@H](NC(=O)[C@H](Cc1cccc2[nH]ccc12)NC(=O)[C@@H]1CCCN1C(=O)[C@H](CCCNC(=N)N)NC(=O)[C@H](N)CCCCN)C(C)(C)C)C(=O)O [NT66L, [D-Lys^8,L-neo-Trp^11,tert-Leu^12]NT(8-13)] (H-[dK]RP[Ala(indol-4-yl)][Tle]L-OH; N-terminus and C-terminus assumed)
hNTS1 Selectivity (hNTS1; Table 2): 0.7
Kd (hNTS1; [2]): 10.2 ± 0.6 nM
hNTS2 Selectivity (hNTS2; Table 2, hNTS2 over hNTS1): 1.4
Kd (hNTS2; [3]): 7.1 ± 0.8 nM
hNTS2 Selectivity (hNTS2; Table 4): 2
half-life [1]: > 100 h

CC(C)C[C@H](NC(=O)[C@@H](NC(=O)[C@H](Cc1c[nH]c2ccccc12)NC(=O)[C@@H]1CCCN1C(=O)[C@H](CCCNC(=N)N)NC(=O)[C@H](N)CCCCN)C(C)(C)C)C(=O)O [NT66T, [D-Lys^8,L-Trp^11,tert-Leu^12]NT(8-13)] (H-[dK]RPW[Tle]L-OH; N-terminus and C-terminus assumed)
hNTS1 Selectivity (hNTS1; Table 2): 0.1
Kd (hNTS1; [2]): 140 ± 19 nM
hNTS2 Selectivity (hNTS2; Table 2, hNTS2 over hNTS1): 7.7
Kd (hNTS2; [3]): 18.1 ± 0.7 nM

CC[C@H](C)[C@H](NC(=O)[C@H](Cc1cccc2[nH]ccc12)NC(=O)[C@@H]1CCCN1C(=O)[C@H](CCCNC(=N)N)NC(=O)[C@H](N)CCCCN)C(=O)N[C@@H](CC(C)C)C(=O)O [NT67L, [D-Lys^8,L-neo-Trp^11]NT(8-13)] (H-[dK]RP[Ala(indol-4-yl)]IL-OH; N-terminus and C-terminus assumed)
hNTS1 Selectivity (hNTS1; Table 2): 2.1
Kd (hNTS1; [2]): 0.59 ± 0.05 nM
hNTS2 Selectivity (hNTS2; Table 2, hNTS2 over hNTS1): 0.5
Kd (hNTS2; [3]): 1.23 ± 0.03 nM
hNTS2 Selectivity (hNTS2; Table 4): — (“—“ indicates higher affinity for hNTS1)
half-life [1]: > 100 h

CC[C@H](C)[C@H](NC(=O)[C@H](Cc1c[nH]c2ccccc12)NC(=O)[C@@H]1CCCN1C(=O)[C@H](CCCNC(=N)N)NC(=O)[C@H](N)CCCCN)C(=O)N[C@@H](CC(C)C)C(=O)O [NT67T, [D-Lys^8,L-Trp^11]NT(8-13)] (H-[dK]RPWIL-OH; N-terminus and C-terminus assumed)
hNTS1 Selectivity (hNTS1; Table 2): 0.5
Kd (hNTS1; [2]): 17 ± 2 nM
hNTS2 Selectivity (hNTS2; Table 2, hNTS2 over hNTS1): 2.2
Kd (hNTS2; [3]): 8 ± 0.4 nM

CN[C@@H](CCCNC(=N)N)C(=O)N[C@@H](CCN)C(=O)N1CCC[C@H]1C(=O)N[C@@H](Cc1cccc2[nH]ccc12)C(=O)N[C@H](C(=O)N[C@@H](CC(C)C)C(=O)O)C(C)(C)C [NT71, [N-methyl-Arg^8,DAB^9,L-neo-Trp^11,tert-leu^12]NT(8-13)] (H-[NMeR][Dab]P[Ala(indol-4-yl)][Tle]L-OH; N-terminus and C-terminus assumed)
hNTS1 Selectivity (hNTS1; Table 2): 0.7
Kd (hNTS1; [2]): 1.71 ± 0.06 nM
hNTS2 Selectivity (hNTS2; Table 2, hNTS2 over hNTS1): 1.5
Kd (hNTS2; [3]): 1.11 ± 0.03 nM

CC(C)C[C@H](NC(=O)[C@@H](NC(=O)[C@H](Cc1cccc2[nH]ccc12)NC(=O)[C@@H]1CCCN1C(=O)[C@H](N)CCCCN)C(C)(C)C)C(=O)O [NT72, [D-Lys^9,L-neo-Trp^11,tert-Leu^12]NT(9-13)] (H-[dK]P[Ala(indol-4-yl)][Tle]L-OH; N-terminus and C-terminus assumed)
hNTS1 Selectivity (hNTS1; Table 2): 41.0
Kd (hNTS1; text, read-out: Kd at hNTS1): 34 nM
hNTS2 Selectivity (hNTS2; Table 2, hNTS2 over hNTS1): 0.02
hNTS2 Selectivity (hNTS2; Table 4): — (“—“ indicates higher affinity for hNTS1)
Kd (hNTS2; text, read-out: Kd at hNTS2): 1400 nM
half-life [1]: > 100 h

CC(C)C[C@H](NC(=O)[C@@H](NC(=O)[C@H](Cc1cccc2[nH]ccc12)NC(=O)[C@@H]1CCCN1C(=O)[C@@H](CCCN)NC(=O)[C@@H](N)CCCNC(=N)N)C(C)(C)C)C(=O)O [NT77, [D-Orn^9,L-neo-Trp^11,tert-Leu^12]NT(8-13)] (H-R[dOrn]P[Ala(indol-4-yl)][Tle]L-OH; N-terminus and C-terminus assumed)
hNTS1 Selectivity (hNTS1; Table 2): 0.3
Kd (hNTS1; [2]): 1500 ± 100 nM
hNTS2 Selectivity (hNTS2; Table 2, hNTS2 over hNTS1): 3.3
Kd (hNTS2; [3]): 460 ± 70 nM
hNTS2 Selectivity (hNTS2; Table 4): 3.3

CC(C)C[C@H](NC(=O)[C@@H](NC(=O)[C@H](Cc1c[nH]c2ccccc12)NC(=O)[C@@H]1CCCN1C(=O)[C@@H](CCCN)NC(=O)[C@@H](N)CCCNC(=N)N)C(C)(C)C)C(=O)O [NT77T, [D-Orn^9,L-Trp^11,tert-Leu^12]NT(8-13)] (H-R[dOrn]PW[Tle]L-OH; N-terminus and C-terminus assumed)
hNTS1 Selectivity (hNTS1; Table 2): 0.2
Kd (hNTS1; [2]): 1530 ± 80 nM
hNTS2 Selectivity (hNTS2; Table 2, hNTS2 over hNTS1): 4.8
Kd (hNTS2; [3]): 320 ± 20 nM

CN[C@@H](CCCNC(=N)N)C(=O)N[C@H](CCCN)C(=O)N1CCC[C@H]1C(=O)N[C@@H](Cc1cccc2[nH]ccc12)C(=O)N[C@H](C(=O)N[C@@H](CC(C)C)C(=O)O)C(C)(C)C [NT78, [N-methyl-Arg^8,D-Orn^9,L-neo-Trp^11,tert-Leu^12]NT(8-13)] (H-[NMeR][dOrn]P[Ala(indol-4-yl)][Tle]L-OH; C-terminus assumed)
hNTS1 Selectivity (hNTS1; Table 2): 0.3
Kd (hNTS1; [2]): 1300 ± 400 nM
hNTS2 Selectivity (hNTS2; Table 2, hNTS2 over hNTS1): 3.4
Kd (hNTS2; [3]): 380 ± 40 nM

CN[C@@H](CCCNC(=N)N)C(=O)N[C@H](CCCN)C(=O)N1CCC[C@H]1C(=O)N[C@@H](Cc1c[nH]c2ccccc12)C(=O)N[C@H](C(=O)N[C@@H](CC(C)C)C(=O)O)C(C)(C)C [NT78T, [N-methyl-Arg^8,D-Orn^9,L-Trp^11,tert-Leu^12]NT(8-13)] (H-[NMeR][dOrn]PW[Tle]L-OH; N-terminus and C-terminus assumed)
hNTS1 Selectivity (hNTS1; Table 2): 0.5
Kd (hNTS1; [2]): 1400 ± 300 nM
hNTS2 Selectivity (hNTS2; Table 2, hNTS2 over hNTS1): 2.1
Kd (hNTS2; [3]): 660 ± 50 nM

KRPYIL [NT17, [L-Lys^8]NT(8-13)]
hNTS1 Selectivity (hNTS1; Table 2): 4.0
Kd (hNTS1; [2]): 0.25 ± 0.02 nM
hNTS2 Selectivity (hNTS2; Table 2, hNTS2 over hNTS1): 0.2
Kd (hNTS2; [3]): 1.2 ± 0.2 nM

RKPYIL [NT18, [L-Lys^9]NT(8-13)]
Kd (hNTS1): 1.49 ± 0.09 nM
hNTS1 Selectivity (hNTS1; Table 2): 0.8
Kd (hNTS2): 1.18 ± 0.09 nM
hNTS2 Selectivity (hNTS2; Table 2, hNTS2 over hNTS1): 1.3

RRGYIL [NT07, [Gly^10]NT(8-13)]
Kd (hNTS1): 1380 ± 50 nM
hNTS1 Selectivity (hNTS1; Table 2): 0.7
Kd (hNTS2): 970 ± 40 nM
hNTS2 Selectivity (hNTS2; Table 2, hNTS2 over hNTS1): 1.4

RRPAIL [NT08, [Ala^11]NT(8-13)] [listing 1 of 2 here]
Kd (hNTS1): 2500 ± 200 nM
Kd (hNTS2; [3]): 58 ± 5 nM

RRPAIL [NT08, [Ala^11]NT(8-13)] [listing 2 of 2 here]
hNTS1 Selectivity (hNTS1; Table 2): 0.02
hNTS2 Selectivity (hNTS2; Table 2, hNTS2 over hNTS1): 43
NTS2 Selectivity (hNTS2; Table 3): 43
hNTS2 Selectivity (hNTS2; Table 4): 43

RRPYLL [NT09, [L-Leu^12]NT(8-13)]
Kd (hNTS1): 7.2 ± 0.6 nM
hNTS1 Selectivity (hNTS1; Table 2): 0.3
Kd (hNTS2): 2.4 ± 0.3 nM
hNTS2 Selectivity (hNTS2; Table 2, hNTS2 over hNTS1): 2.9

RRPYVL [NT10, [L-Val^12]NT(8-13)]
Kd (hNTS1): 11.3 ± 0.6 nM
hNTS1 Selectivity (hNTS1; Table 2): 0.8
Kd (hNTS2): 8.8 ± 0.4 nM
hNTS2 Selectivity (hNTS2; Table 2, hNTS2 over hNTS1): 1.3

[DAB^9,L-neo-Trp^11]NT(9-13) [NT75]
hNTS1 Selectivity (hNTS1; Table 2): 2.3
Kd (hNTS1; Table 2, n.d. = no detectable binding at 1 μM, †/* values published before by the same laboratory, read-out: hNTS1 Geometric Mean ∀ SEM (equilibrium dissociation constant Kd)): 73 ± 5 nM
hNTS2 Selectivity (hNTS2; Table 2, hNTS2 over hNTS1): 0.4
Kd (hNTS2; [3]): 169 ± 8 nM
